From PMC9351465, “Mechanism-based heparanase inhibitors reduce cancer metastasis in vivo” (Proceedings of the National Academy of Sciences of the …, 2022)
pIC50: −log10 of the molar value. Where “and” joins values, the source holds several entries; their conditions need not be identical. Equal entries are not always repeated. Entries after “also recorded” stand apart in the source; their conditions may differ.

Tests used:
[1] = target: T1, HPSE (Homo sapiens, UniProt Q9Y251); experiment: colorimetric fondaparinux cleavage assay; assay type: biochemical
T1 sequence (Q9Y251 158-543 limits assumed): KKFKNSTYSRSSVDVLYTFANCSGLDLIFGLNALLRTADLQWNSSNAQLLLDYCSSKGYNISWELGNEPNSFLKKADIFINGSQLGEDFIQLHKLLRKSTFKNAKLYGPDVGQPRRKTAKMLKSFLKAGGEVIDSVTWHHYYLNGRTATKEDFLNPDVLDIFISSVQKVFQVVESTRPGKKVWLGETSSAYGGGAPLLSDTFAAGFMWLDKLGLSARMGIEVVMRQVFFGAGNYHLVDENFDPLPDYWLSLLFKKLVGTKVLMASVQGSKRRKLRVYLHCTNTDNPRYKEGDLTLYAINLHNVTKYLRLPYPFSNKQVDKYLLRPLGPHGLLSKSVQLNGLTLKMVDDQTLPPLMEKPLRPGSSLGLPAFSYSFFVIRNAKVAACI
T1 sequence (Q9Y251 36-109 limits assumed): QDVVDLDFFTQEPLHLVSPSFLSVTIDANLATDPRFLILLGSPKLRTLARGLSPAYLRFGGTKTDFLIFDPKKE
Description: We next investigated the ability of our inhibitors to abrogate HPSE processing of its native oligosaccharide substrates, using a colorimetric assay that detects cleavage of the synthetic HS pentasaccharide fondaparinux ([49]). […]
Fondaparinux cleavage was performed essentially as previously described (9). Briefly, assays were carried out in 96 well plates (Nunc) pretreated with 4% BSA in TBS-T (20 mM Tris pH 7.4, […]
100 µL reactions were set up in 40 mM NaOAc pH 5.0 buffer, containing final concentrations of 200 ng/mL HPSE, 100 µM Fondaparinux (Arixtra) and specified concentrations of inhibitors.
Reactions were incubated at 37°C for 18 h, then quenched with 100 µL 0.1 M NaOH supplemented with 1.7 mM WST-1 tetrazolium salt, and incubated at 60°C for 1 h. Absorbance at 584 nm was read using an ELISA plate reader (BIO-TEK Instruments). All reactions were carried out in technical duplicate. Data were plotted and analyzed using Sigmaplot (Systat). […]

[2] = target: T1, HPSE; experiment: H35SPG basement membrane (ECM) digest by recombinant HPSE; assay type: biochemical; details: for inhibition of recombinant HPSE-mediated H35SPG cleavage: 200 ng HPSE, pH 6.0, 37°C, 5 h
Source text: Finally, we assessed our inhibitors against HPSE-mediated degradation of bona fide HSPGs in an ECM environment. Cultured bovine corneal endothelial cells secrete a subendothelial basement membrane material rich in proteoglycans, which can be radiolabeled by growth in the presence of ^35SO4^2− ([50]). Solubilized H^35S chains released from H^35SPGs by HPSE digestion can be resolved chromatographically, with HPSE inhibition leading to a corresponding loss of signal. […] We also tested inhibition of endogenous cellular HPSE using this assay format. […]
ECM coated 35 mm culture dishes containing 35S labelled HS were prepared as previously described (10). Briefly, bovine corneal endothelial cells were plated at an initial density of 2x10^5 cells/ml, with 4% dextran T-40 (Sigma) included in the growth medium. Na235SO4 (25 µCi/ml) was added to the incubation medium on days 2 and 5 after seeding. On day 12, subendothelial ECM is exposed by dissolving the cells with PBS containing 0.5% Triton X-100 and 20 mM NH4OH, followed by four washes with PBS.
(§1) For HS-degradation assays, ECM coated dishes were incubated with 200 ng recombinant HPSE in 1 mL reaction mixture (10 mM buffer Phosphate-Citrate pH 6.0, 50 mM NaCl, 1 mM DTT, 1 mM CaCl2) containing HPSE inhibitors or DMSO control. Plates were incubated at 37°C for 5 h, then assay medium collected and applied to a 0.9×30 cm Sepharose 6B size exclusion column. The Sepharose 6B column was eluted with PBS, and 35S radioactivity of 0.2 mL fractions quantitated using a liquid scintillation analyzer (Packard BioScience) (11). […]
Matrigel and […]
non-migrating cells in the upper side of the Boyden filter were removed by swabbing, then invading cells on the bottom side of the transwell filter imaged for analysis. […]
B16 melanoma - Twenty minutes before tumor cell inoculation, C57BL/J6 mice (n=5) were injected intraperitoneally with vehicle alone (PBS), compound 2 (300 nmol/mouse), or SST0001 (150 µg/mouse). Mice were subsequently intravenously inoculated with 1.5x105

[3] = target: exo-β-glucuronidase EcGUSB (Escherichia coli, UniProt P05804); experiment: cABPP with ABP 7, recombinant EcGUSB; details: competition with ABP 7
[4] = target: T2, GUSB (Homo sapiens, UniProt P08236); experiment: cABPP of human platelet lysates, GUSB band; details: human platelet lysates containing both HPSE and GUSB
T2 sequence (P08236 23-651): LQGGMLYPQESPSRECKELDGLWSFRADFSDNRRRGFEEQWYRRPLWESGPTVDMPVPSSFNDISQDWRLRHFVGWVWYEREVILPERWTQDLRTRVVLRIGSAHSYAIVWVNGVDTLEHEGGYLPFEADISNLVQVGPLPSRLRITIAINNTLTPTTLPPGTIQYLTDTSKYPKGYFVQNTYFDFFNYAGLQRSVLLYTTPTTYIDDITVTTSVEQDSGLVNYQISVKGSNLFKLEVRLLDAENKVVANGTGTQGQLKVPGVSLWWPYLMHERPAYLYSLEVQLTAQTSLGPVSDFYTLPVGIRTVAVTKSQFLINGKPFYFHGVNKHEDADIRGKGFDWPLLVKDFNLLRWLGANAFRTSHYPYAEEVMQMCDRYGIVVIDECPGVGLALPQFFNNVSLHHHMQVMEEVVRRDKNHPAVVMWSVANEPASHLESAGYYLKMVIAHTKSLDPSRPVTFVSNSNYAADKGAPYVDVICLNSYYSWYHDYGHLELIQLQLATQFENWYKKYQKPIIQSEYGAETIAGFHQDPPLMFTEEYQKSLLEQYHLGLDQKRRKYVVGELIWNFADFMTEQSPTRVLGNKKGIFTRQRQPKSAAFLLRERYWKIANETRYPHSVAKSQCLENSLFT

[5] = target: T1, HPSE; experiment: competitive activity-based protein profiling (cABPP) with ABP 7, recombinant HPSE; details: recombinant HPSE 20 nM, 1 h preincubation at 37°C, then 100 nM ABP 7, pH 5.5
[6] = system: U87 glioblastoma cells; experiment: Matrigel invasion assay; assay type: cell-based, human; details: 20 µM inhibitor, 4 h
Description: Preliminary in cellulo evaluations of our inhibitors’ effects on cancer aggression were conducted using a Matrigel invasion assay, which measures the ability of cells to migrate through transwell inserts coated with the ECM material Matrigel. Matrigel invasion by cells requires a broad complement of proteases and glycosidases, thereby mimicking some aspects of metastasis in vivo ([51]).
as §1
Cells in the upper chamber were separated by Matrigel from a lower chamber containing 600 µL DMEM, supplemented with 10% FBS. […] 10 randomly selected microscopic fields were recorded, and cell invasion calculated using ImageJ, by quantitating the percentage of the field stained by crystal violet. […]

[7] = target: T3, human platelet HPSE (Homo sapiens, UniProt Q9Y251); experiment: cABPP of human platelet lysates, HPSE band
T3 sequence (Q9Y251 158-543 limits assumed): T1 sequence (Q9Y251 158-543 limits assumed)
T3 sequence (Q9Y251 36-109 limits assumed): T1 sequence (Q9Y251 36-109 limits assumed)

[8] = system: BpHep and AcGH79; assay type: biochemical, Burkholderia pseudomallei; Acidobacterium capsulatum; details: recombinant enzymes, competition with ABP 7

SMILES: O=C(O)[C@@H]1[C@@H](O)[C@H](O)[C@@H](O)[C@@H]2O[C@@H]21 [compound 1, glucuronyl-cyclophellitol]
- HPSE inhibition, fondaparinux cleavage ([1]; at 50 μM): Little HPSE inhibition
- inhibition of recombinant HPSE-mediated H35SPG cleavage [2]: no HPSE inhibition was observed
- EcGUSB inhibition (cABPP) [3]: inhibited
- selectivity of GUSB inhibition in platelet lysates [4]: exclusively inhibited GUSB
- HPSE inhibition (cABPP) [5]: ineffective HPSE inhibitor up to 10 μM

SMILES: CC(=O)N[C@H]1[C@@H](O[C@H]2[C@H](O)[C@@H](O)[C@@H]3O[C@@H]3[C@@H]2C(=O)O)O[C@H](COS(=O)(=O)O)[C@@H](O)[C@@H]1O [compound 3]
- pIC50 ([1]; 200 ng/mL HPSE, 100 µM fondaparinux, pH 5.0, 37°C, 18 h, n = 2, read-out: IC50, HPSE-mediated fondaparinux cleavage): 6.28 and ~6.29
- inhibition of recombinant HPSE-mediated H35SPG cleavage [2]: robust, dose-dependent inhibition
- level of inhibition of H35SPG cleavage relative to 4.6 μM 10 ([2]; 1 μM 2 or 3 compared to 4.6 μM 10): comparable levels of inhibition
- Matrigel invasion (% field stained) [6]: significantly reduced Matrigel invasion
- pIC50 ([7]; HPSE IC50, human platelet lysates, cABPP, n = 3): ~7.22 and 7.25
- selectivity of HPSE inhibition in platelet lysates ([7]; human platelet lysates containing both HPSE and GUSB): highly selective inhibition of human platelet HPSE
- HPSE inhibition (cABPP) [5]: nanomolar HPSE inhibition potencies; also recorded: greater potency than 2 and 4

SMILES: O=C(O)[C@@H]1[C@@H](O[C@H]2O[C@H](CO)[C@@H](O)[C@H](O)[C@H]2O)[C@H](O)[C@@H](O)[C@@H]2O[C@@H]21 [compound 4]
- HPSE inhibition (cABPP) [5]: nanomolar HPSE inhibition potencies

SMILES: N[C@H]1[C@@H](O[C@H]2[C@H](O)[C@@H](O)[C@@H]3O[C@@H]3[C@@H]2C(=O)O)O[C@H](CO)[C@@H](O)[C@@H]1O [compound 5]
- inhibition of BpHep and AcGH79 (cABPP) [8]: all compounds apart from 5 showing activity
- HPSE inhibition (cABPP) [5]: weaker inhibition
